Experimental findings from patent publication US20230255974A1, “USE OF THYROMIMETICS FOR THE TREATMENT OF CANCER” (THE UNIVERSITY OF VERMONT, priority 2020, published 2023) are described below.

Test [1] concerns interferon/JAK1/STAT1 pathway. Kind of test: Interferon/JAK1/STAT1 pathway expression (immunoblot, qPCR). Type of test: cell-based, human. The following applies: SW-TRβ. On the procedure: Immunoblot Analysis. Proteins were isolated from whole cells in lysis buffer (20 mM Tris-HCl [pH 8], 137 mM NaCl, 10% glycerol, 1% Triton X-100, and 2 mM EDTA) containing Protease Inhibitor Cocktail 78410 (Thermo Scientific). Proteins were resolved by polyacrylamide gel electrophoresis on 10% sodium dodecyl sulfate gels EC60752 (Life Technologies) and immobilized onto nitrocellulose membranes (GE Healthcare) by electroblot (Bio-Rad Laboratories). Specific proteins were detected by immunoblotting with the indicated antibodies (Table 4); immunoreactive proteins were detected by enhanced chemiluminescence (Thermo Scientific) on a ChemiDoc XRS+ (Bio-Rad Laboratories). RNA Extraction and Quantitative Real-Time PCR (qRT-PCR). Total RNA was extracted using RNeasy Plus Kit (Qiagen) according to manufacturer's protocol. cDNA was then generated using the 5×RT Mastermix (ABM). Gene expression to validate RNASeq analysis was quantified by qRT-PCR using 2×SuperGreen Mastermix (ABM) on a QuantStudio 3 real-time PCR system (Applied Biosystems). Fold change in gene expression compared to endogenous controls was calculated using the ddCT method.
On the technique in general: In western blotting, separated proteins are transferred to a membrane and probed.

Test [2] has as its system SW1736 cells (SW-EV, SW-TRβ). Kind of test: Tumorsphere assay, T3. The class given is cell-based, human. The following applies: 10^−8 M T3, seven days.
Test [3] relates to SW1736 cells (SW-EV, SW-TRβ). Kind of test: Apoptosis assay (PARP1 and caspase 3 cleavage, immunoblot). Type of test: cell-based, human. The source says:
Immunoblot Analysis. […] Proteins were resolved by polyacrylamide gel electrophoresis on 10% sodium dodecyl sulfate gels EC60752 (Life Technologies) and immobilized onto nitrocellulose membranes (GE Healthcare) by electroblot (Bio-Rad Laboratories). Specific proteins were detected by immunoblotting with the indicated antibodies (Table 4); immunoreactive proteins were detected by enhanced chemiluminescence (Thermo Scientific) on a ChemiDoc XRS+ (Bio-Rad Laboratories).
Apoptosis Assay. Cells were plated at a density of 50,000 cells/well and treated with vehicle (1 N NaOH) or 10^−8 M T3. After 5 days the cells were lysed for analysis by immunoblot. Poly (ADP-ribose) polymerase 1 (PARP1) and Caspase 3 cleavage were assessed to measure apoptotic signaling.
Immunoblot Analysis. […] Proteins were resolved by polyacrylamide gel electrophoresis on 10% sodium dodecyl sulfate gels EC60752 (Thermo Fisher Scientific) and immobilized onto nitrocellulose membranes (GE Healthcare, Chicago, Ill., USA) by electroblot (Bio-Rad Laboratories, Hercules, Calif., USA). Specific proteins were detected by immunoblotting with the indicated antibodies (Table 4); immunoreactive proteins were detected by enhanced chemiluminescence (Thermo Scientific) on a ChemiDoc XRS+ (Bio-Rad Laboratories).

For test [4], the system named is SW1736 cells (SW-EV, SW-TRβ). Kind of test: Growth assay (live cell imaging), T3. Type of test: cell-based, human. The protocol: Culture of thyroid cell lines. Anaplastic thyroid cancer cell lines (SW1736 and KTC-2) were cultured in RPMI 1640 growth media with L-glutamine (300 mg/L), sodium pyruvate and nonessential amino acids (1%) (Cellgro/Mediatech), supplemented with 10% fetal bovine serum (Life Technologies) and penicillin-streptomycin ([…]) (Cellgro/Mediatech) at 37° C., 5% CO2, and 100% humidity. The cell lines were generously provided by Dr. John Copland III (Mayo Clinic). Lentivirally modified SW1736 cells were generated as recently described (Gillis et al., “Thyroid Hormone Receptor β Suppression of RUNX2 is Mediated by Brahma Related Gene 1 Dependent Chromatin Remodeling.” Endocrinol. 159(6):2484-94 (2018), which is hereby incorporated by reference in its entirety) with either an empty vector (SW-EV) or to overexpress TRβ (SW-TRβ). SW-EV and SW-TRβ were grown in the above conditions with the addition of 1 μg/ml puromycin (Gold Bio). All cells were authenticated by the Vermont Integrative Genomics Resource at the University of Vermont using short tandem repeat profiles and Promega GenePrint10 System (SW1736, May 2019; KTC-2, October 2019).
Growth Assays. Cell growth was measured either through live cell imaging or by cell counting at discrete points. Live cell imaging was used to assess the growth kinetics of SW-EV and SW-TRβ. To perform live cell imaging, 5000 cells were plated per well in 24 well plates. After 24 hours in phenol red free, charcoal stripped media, media was supplemented with either 10^−8 M T3 or equivolume vehicle (NaOH). Every two hours cells were imaged with a Lionheart automated microscope (BioTek) and quantified with Gen5 software (BioTek). The cells entered the log phase of growth at approximately 48 hours, and the portion of the curve following this point was used to calculate the doubling time of the cells. In order to measure growth manually, 25,000 cells were plated per well in a six well plate. […] Every 24 hours cell counts were assessed by hemocytometer.

The test system of test [5] is SW1736 cells (SW-EV, SW-TRβ). Kind of test: Soft agar colony formation assay. Type of test: cell-based, human. The following applies: 10^−8 M T3, 14 days. On the procedure:
Soft Agar Colony Formation Assay. Soft agar colony forming assays were used to assess anchorage-independent growth. A layer 0.50% agar in thyroid media (as described) was solidified in 6-well cell culture plates. SW-EV or SW-TRβ cells were plated in a second layer of 0.25% agar in thyroid media. 200 uL of thyroid media was maintained at the top of each well to prevent the agar from drying. […] Colonies were allowed to grow for 14 days. Live SW-EV and SW-TRβ colonies were detected via GFP expression using a ChemiDoc XRS+ (Bio-Rad Laboratories). Colonies were then counted with ImageJ using the Colony Counter plugin.

Test [6] concerns NthyOri thyroid cells. The following applies: normal-like NthyOri thyroid cells.
The test system of test [7] is MDA-MB-468 cells (EV, TRβ). The following applies: MDA-MB-468 in the presence of TRβ, 10 nM, 3 days. The protocol:
Triple negative breast cancer were examined next. […] TNBC cancers and other advanced solid tumors have lower endogenous levels of expression of TRβ. […] Cell migration was measured by scratch assay (FIG. 28). […] Data are mean+/−SD; *indicates p<0.05 determined by t-test.

For the compound `N[C@@H](Cc1cc(I)c(Oc2ccc(O)c(I)c2)c(I)c1)C(=O)O` [T3, (2S)-2-amino-3-[4-(4-hydroxy-3-iodophenoxy)-3,5-diiodophenyl]propanoic acid], in test [1] (T3), the “expression of IRF1 target genes APOL6 and TNFSF10 (qPCR)” value was “Induction of IRF1 target genes APOL6 and TNFSF10”; the “expression of STAT1 target genes IRF1 and TAP1 (qPCR)” value is “increased the expression of STAT1 target genes IRF1 and TAP1”. The “expression of JAK1 and STAT1” value in test [1] (T3 treatment) is listed as “significantly increased”. The “number of tumorspheres formed” value in test [2] (SW-EV) is on record as “no effect on the number of tumorspheres”. For the same compound, in test [2] (SW-TRβ), the tumorsphere growth entry is “blocked almost all tumorsphere growth”. Moreover, in test [3] (SW-EV and SW-TRβ, T3, 5 days), the “caspase 3 and PARP1 cleavage” value is on record as “induced cleavage of these apoptotic effectors only in SW-TRβ”. For the same compound, in test [3] (SW-TRβ, five days), the “apoptosis (cleaved PARP and caspase)” value is on record as “induces apoptosis”. Also, the growth rate result in test [4] (SW-EV, 10^−8 M T3 vs vehicle) is on record as “modestly decreased the growth rate”. Besides, the cellular growth entry in test [4] (SW-TRβ (TRβ overexpression), 10^−8 M T3) is listed as “profoundly reduced cellular growth”. The doubling time result in test [4] (SW-TRβ, T3 treated) is “greatest doubling time”. Besides, in test [5] (SW-EV), the anchorage-independent colony growth result was “reduced anchorage-independent colony growth”. In test [5] (SW-TRβ), the anchorage-independent colony growth entry was “nearly ablated colony growth”. In addition, in test [6], the “cell phenotypic or signaling changes” value is “No cell phenotypic changes or signaling changes were observed”. Moreover, in test [7], the “cell migration and growth” value is “reduced cell migration and growth”.
